In patent US20250228784A1, “ANTIFIBROTIC COMPOSITION” (Sunshine Lake Pharma Co., Ltd., priority 2021, published 2025):

Experiment: Initial research on stability of the active compound on long-term storage
Assay type: physicochemical
Conditions: active compound alone, not formulated

In the case of CCCCCCN(CCCCCC)c1ccc(-n2c(C)nc(C)cc2=O)cc1F [compound having formula (I), 3-(4-(dihexylamino)-3-fluorophenyl)-2,6-dimethylpyrimidin-4(3H)-one], the “stability on long-term storage” value was “good stability”.
